Here are results for 21 molecules from patent US10781184B2, “Substituted benzazinones as antibacterial compounds” (GlaxoSmithKline Intellectual Property Development Limited, priority 2015, dated 2020).

What all share (test): Minimum Inhibitory Concentration Assay (broth microdilution, CLSI)
Type in all cases: cell-based
On the technique in general: Dilution methods test growth across graded concentrations, often in twofold steps.

One experiment relates to E. coli 7623. Particulars: Escherichia coli; strain 7623, broth microdilution; read-out: E. coli 7623 MIC. Here is the method: (§1) Methods for dilution Antimicrobial Susceptibility TestS for Bacteria that Grow Aerobically; Approved Standard-Ninth Edition; M7-A9, Vol. 32 No. 2, Clinical and Laboratory Standards Institute, Wayne, Pa.; January 2012.
(§2) Performance Standards for Antimicrobial Susceptibility Testing; Twenty-Second Informational Supplement; M100-S22 Vol. 32 No. 3; Clinical and Laboratory Standards Institute, Wayne, Pa., January 2012.
(§3) Broth microdilution was performed in accordance with the CLSI recommended procedures for aerobic bacteria [CLSI, 2012].
(§4) Comparator compound stock solutions were prepared as recommended by CLSI [CLSI, 2012]. The stock solutions of novel GSK compounds were prepared at 512 mcg/mL by dissolving the compounds in dimethyl sulfoxide (DMSO) and diluting 1:10 with sterile water. The 512 mcg/mL stock was further serially diluted in the recommended broth media for the organisms being tested. Final DMSO concentration in test wells was less than 1%.
(§5) Microtitre plates were prepared using the Microlab STAR™ (Hamilton Co., Reno, Nev.) to add media (50 μL) and the Microlab AT Plus system (Hamilton Co., Reno, Nev.) to serially dilute the compounds (final concentration range 0.125 to 128 mcg/mL) and to add inoculum. A positive growth control well containing medium and the test isolate was included on each microtitre plate. Ten microliters of the test medium from the positive growth control well was plated to determine the purity of each test isolate. A microtitre mirror reader (Cooke Instruments, Ltd., England) was used to assist in determining the microdilution MIC endpoints. The MIC was determined as the lowest concentration of compound that inhibited visible growth of the organism.

Another experiment relates to P. aeruginosa PA01. The settings on record: Pseudomonas aeruginosa; strain PA01, broth microdilution; read-out: P. aeruginosa PA01 MIC. Here is the method: as §1, §2, §3, §4, §5
The next experiment has as its system K. pneumoniae 1161486. Particulars: Klebsiella pneumoniae; strain 1161486, broth microdilution; read-out: K. pneumoniae 1161486 MIC. The procedure: as §1, §2, §3, §4, §5

≈ marks a conversion by molar mass, not a printed value.

Broadly, the MIC is the smallest concentration in the dilution series that meets the test's criterion for growth inhibition. As for `CONCc1ccc(-c2ccc3c(=O)n(CC[C@](C)(C(=O)NO)S(C)(=O)=O)cnc3c2)c(F)c1` [Example 50, (2R)-4-(7-{2-fluoro-4-[(methoxyamino)methyl]phenyl}-4-oxo-3,4-dihydroquinazolin-3-yl)-N-hydroxy-2-methanesulfonyl-2-methylbutanamide], the results for the MIC with E. coli 7623, with P. aeruginosa PA01 and in the experiment with K. pneumoniae 1161486 were 0.125 µg/mL (≈ 0.254 µM), 2 µg/mL (≈ 4.06 µM) and 0.5 µg/mL (≈ 1.02 µM), respectively.
For `CCONCc1ccc(-c2ccc3c(=O)n(CC[C@](C)(C(=O)NO)S(C)(=O)=O)cnc3c2)c(F)c1` [Example 51, (2R)-4-(7-{4-[(ethoxyamino)methyl]-2-fluorophenyl}-4-oxo-3,4-dihydroquinazolin-3-yl)-N-hydroxy-2-methanesulfonyl-2-methylbutanamide], in that order: 0.125 µg/mL (≈ 0.247 µM), 2 µg/mL (≈ 3.95 µM) and 0.5 µg/mL (≈ 0.987 µM).
For `CON(C)Cc1ccc(-c2ccc3c(=O)n(CC[C@](C)(C(=O)NO)S(C)(=O)=O)cnc3c2)cc1` [Example 52, (2R)—N-hydroxy-2-methanesulfonyl-4-[7-(4-{[methoxy(methyl)amino]methyl}phenyl)-4-oxo-3,4-dihydroquinazolin-3-yl]-2-methylbutanamide], the minimal inhibitory concentration (MIC) worked out at 0.063 µg/mL (≈ 0.129 µM) in the experiment with E. coli 7623, 8 µg/mL (≈ 16.4 µM) with P. aeruginosa PA01 and 0.25 µg/mL (≈ 0.512 µM) with K. pneumoniae 1161486.
Taken in the same sequence, the figures for `COc1ccc(-c2ccc3c(=O)n(CC[C@](C)(C(=O)NO)S(C)(=O)=O)ccc3c2)cc1` [Example 53, (2R)—N-hydroxy-2-methanesulfonyl-4-[6-(4-methoxyphenyl)-1-oxo-1,2-dihydroisoquinolin-2-yl]-2-methylbutanamide] were below 0.03 µg/mL, 0.5 µg/mL (≈ 1.12 µM) and 0.25 µg/mL (≈ 0.562 µM).
For `Cc1ccc(-c2ccc3c(=O)n(CC[C@](C)(C(=O)NO)S(C)(=O)=O)ccc3c2)cc1` [Example 54, (2R)—N-hydroxy-2-methanesulfonyl-2-methyl-4-[6-(4-methylphenyl)-1-oxo-1,2-dihydroisoquinolin-2-yl]butanamide], in that order: below 0.03 µg/mL, 1 µg/mL (≈ 2.33 µM) and 0.5 µg/mL (≈ 1.17 µM).
For `COc1ccc(-c2ccc3c(=O)n(CC[C@](C)(C(=O)NO)S(C)(=O)=O)ccc3c2)c(F)c1` [Example 55, (2R)-4-[6-(2-fluoro-4-methoxyphenyl)-1-oxo-1,2-dihydroisoquinolin-2-yl]-N-hydroxy-2-methanesulfonyl-2-methylbutanamide], in that order: below 0.03 µg/mL, 1 µg/mL (≈ 2.16 µM) and 0.063 µg/mL (≈ 0.136 µM).
Turning to `C[C@@](CCn1ccc2cc(-c3ccccc3)ccc2c1=O)(C(=O)NO)S(C)(=O)=O` [Example 56, (2R)—N-hydroxy-2-methanesulfonyl-2-methyl-4-(1-oxo-6-phenyl-1,2-dihydroisoquinolin-2-yl)butanamide], the minimal inhibitory concentration (MIC) with E. coli 7623 turned out to be 0.063 µg/mL (≈ 0.152 µM); in the experiment on P. aeruginosa PA01 it was 0.5 µg/mL (≈ 1.21 µM); with K. pneumoniae 1161486, 0.125 µg/mL (≈ 0.302 µM).
`C[C@@](CCn1ccc2cc(-c3ccc4c(c3)COC4)ccc2c1=O)(C(=O)NO)S(C)(=O)=O` [Example 57, (2R)-4-[6-(1,3-dihydro-2-benzofuran-5-yl)-1-oxo-1,2-dihydroisoquinolin-2-yl]-N-hydroxy-2-methanesulfonyl-2-methylbutanamide]: the minimum inhibitory concentration (MIC) in the experiment on E. coli 7623 came out at 0.063 µg/mL (≈ 0.138 µM); in the experiment with P. aeruginosa PA01, 2 µg/mL (≈ 4.38 µM); in the experiment with K. pneumoniae 1161486, 0.25 µg/mL (≈ 0.548 µM).
Regarding `Cc1cnc(-c2ccc3c(=O)n(CC[C@](C)(C(=O)NO)S(C)(=O)=O)ccc3c2)s1` [Example 58, (2R)—N-hydroxy-2-methanesulfonyl-2-methyl-4-[6-(5-methyl-1,3-thiazol-2-yl)-1-oxo-1,2-dihydroisoquinolin-2-yl]butanamide], the MIC is 0.063 µg/mL (≈ 0.145 µM) with E. coli 7623, 4 µg/mL (≈ 9.18 µM) in the experiment with P. aeruginosa PA01 and 1 µg/mL (≈ 2.3 µM) in the experiment on K. pneumoniae 1161486.
Taken in the same sequence, the figures for `C[C@@](CCn1ccc2cc(-c3ccc(C#N)cc3F)ccc2c1=O)(C(=O)NO)S(C)(=O)=O` [Example 59, (2R)-4-[6-(4-cyano-2-fluorophenyl)-1-oxo-1,2-dihydroisoquinolin-2-yl]-N-hydroxy-2-methanesulfonyl-2-methylbutanamide] were 0.063 µg/mL (≈ 0.138 µM), 0.5 µg/mL (≈ 1.09 µM) and 0.125 µg/mL (≈ 0.273 µM).
For `COc1ccc(-c2ccc3c(=O)n(CC[C@](C)(C(=O)NO)S(C)(=O)=O)ccc3c2)cn1.Cl` [Example 60, (2R)—N-hydroxy-2-methanesulfonyl-4-[6-(6-methoxypyridin-3-yl)-1-oxo-1,2-dihydroisoquinolin-2-yl]-2-methylbutanamide], in that order: below 0.03 µg/mL, 0.5 µg/mL and 0.5 µg/mL.
For `CN(C)c1ccc(-c2ccc3c(=O)n(CC[C@](C)(C(=O)NO)S(C)(=O)=O)ccc3c2)cc1` [Example 61, (2R)-4-{6-[4-(dimethylamino)phenyl]-1-oxo-1,2-dihydroisoquinolin-2-yl}-N-hydroxy-2-methanesulfonyl-2-methylbutanamide], in that order: below 0.03 µg/mL, above 32 µg/mL and 1 µg/mL (≈ 2.19 µM).
`CN(C)c1ccc(-c2ccc3c(=O)n(CC[C@](C)(C(=O)NO)S(C)(=O)=O)ccc3c2)cn1` [Example 62, (2R)-4-{6-[6-(dimethylamino)pyridin-3-yl]-1-oxo-1,2-dihydroisoquinolin-2-yl}-N-hydroxy-2-methanesulfonyl-2-methylbutanamide]: the minimal inhibitory concentration (MIC) in the experiment with E. coli 7623 came to 0.125 µg/mL (≈ 0.273 µM); in the experiment with P. aeruginosa PA01 it was 8 µg/mL (≈ 17.4 µM); in the experiment with K. pneumoniae 1161486 it was 0.5 µg/mL (≈ 1.09 µM).
Turning to `CN(C)c1ncc(-c2ccc3c(=O)n(CC[C@](C)(C(=O)NO)S(C)(=O)=O)ccc3c2)cn1` [Example 63, (2R)-4-{6-[2-(dimethylamino)pyrimidin-5-yl]-1-oxo-1,2-dihydroisoquinolin-2-yl}-N-hydroxy-2-methanesulfonyl-2-methylbutanamide], the results for the MIC in the experiment with E. coli 7623, in the experiment on P. aeruginosa PA01 and with K. pneumoniae 1161486 were 0.125 µg/mL (≈ 0.272 µM), 4 µg/mL (≈ 8.7 µM) and 1 µg/mL (≈ 2.18 µM), respectively.
For `CN(C)Cc1ccc(-c2ccc3c(=O)n(CC[C@](C)(C(=O)NO)S(C)(=O)=O)ccc3c2)c(F)c1` [Example 65, (2R)-4-(6-{4-[(dimethylamino)methyl]-2-fluorophenyl}-1-oxo-1,2-dihydroisoquinolin-2-yl)-N-hydroxy-2-methanesulfonyl-2-methylbutanamide], in that order: 0.25 µg/mL (≈ 0.511 µM), 4 µg/mL (≈ 8.17 µM) and 0.5 µg/mL (≈ 1.02 µM).
Taken in the same sequence, the figures for `COCCN(C)Cc1ccc(-c2ccc3c(=O)n(CC[C@](C)(C(=O)NO)S(C)(=O)=O)ccc3c2)c(F)c1` [Example 66, (2R)-4-[6-(2-fluoro-4-{[(2-methoxyethyl)(methyl)amino]methyl}phenyl)-1-oxo-1,2-dihydroisoquinolin-2-yl]-N-hydroxy-2-methanesulfonyl-2-methylbutanamide] were 0.063 µg/mL (≈ 0.118 µM), 1 µg/mL (≈ 1.87 µM) and 0.125 µg/mL (≈ 0.234 µM).
For `COCCNCc1ccc(-c2ccc3c(=O)n(CC[C@](C)(C(=O)NO)S(C)(=O)=O)ccc3c2)c(F)c1` [Example 67, (2R)-4-[6-(2-fluoro-4-{[(2-methoxyethyl)amino]methyl}phenyl)-1-oxo-1,2-dihydroisoquinolin-2-yl]-N-hydroxy-2-methanesulfonyl-2-methylbutanamide], the MIC with E. coli 7623 is 0.125 µg/mL (≈ 0.241 µM); in the experiment with P. aeruginosa PA01, 1 µg/mL (≈ 1.92 µM); in the experiment with K. pneumoniae 1161486 it was 1 µg/mL (≈ 1.92 µM).
Consider `COCCCN(C)Cc1ccc(-c2ccc3c(=O)n(CC[C@](C)(C(=O)NO)S(C)(=O)=O)ccc3c2)c(F)c1.Cl` [Example 70, (2R)-4-[6-(2-fluoro-4-{[(3-methoxypropyl)(methyl)amino]methyl}phenyl)-1-oxo-1,2-dihydroisoquinolin-2-yl]-N-hydroxy-2-methanesulfonyl-2-methylbutanamide], for which the MIC with E. coli 7623 was determined as 0.125 µg/mL; in the experiment with P. aeruginosa PA01, 2 µg/mL; in the experiment with K. pneumoniae 1161486, 0.25 µg/mL.
For `COCCNCc1ccc(-c2ccc3c(=O)n(CC[C@](C)(C(=O)NO)S(C)(=O)=O)ccc3c2)c(F)c1F` [Example 71, (R)-4-(6-(2,3-difluoro-4-(((2-methoxyethyl)amino)methyl)phenyl)-1-oxoisoquinolin-2(1H)-yl)-N-hydroxy-2-methyl-2-(methylsulfonyl)butanamide], in that order: 0.063 µg/mL (≈ 0.117 µM), 0.5 µg/mL (≈ 0.93 µM) and 0.5 µg/mL (≈ 0.93 µM).
Regarding `CC(C)OCCNCc1ccc(-c2ccc3c(=O)n(CC[C@](C)(C(=O)NO)S(C)(=O)=O)ccc3c2)c(F)c1.Cl` [Example 73, (2R)-4-{6-[2-fluoro-4-({[2-(propan-2-yloxy)ethyl]amino}methyl)phenyl]-1-oxo-1,2-dihydroisoquinolin-2-yl}-N-hydroxy-2-methanesulfonyl-2-methylbutanamide], the MIC is 0.25 µg/mL in the experiment on E. coli 7623, 2 µg/mL with P. aeruginosa PA01 and 0.5 µg/mL in the experiment with K. pneumoniae 1161486.
As to `CN(CCO)Cc1ccc(-c2ccc3c(=O)n(CC[C@](C)(C(=O)NO)S(C)(=O)=O)ccc3c2)c(F)c1.O=C(O)C(F)(F)F` [Example 74, (2R)-4-[6-(2-fluoro-4-{[(2-hydroxyethyl)(methyl)amino]methyl}phenyl)-1-oxo-1,2-dihydroisoquinolin-2-yl]-N-hydroxy-2-methanesulfonyl-2-methylbutanamide], the MIC in the experiment on E. coli 7623 was determined as 0.25 µg/mL; with P. aeruginosa PA01 it was 1 µg/mL; in the experiment with K. pneumoniae 1161486, 0.5 µg/mL.
